The values that follow come from patent US20080255031A1, “METHOD FOR ENHANCING INSULIN SECRETION” (priority 2007, published 2008).

pEC50, pIC50, pKi: −log10 of the molar value. Several values for one entry are separate records, joined by “and”; a condition that tells them apart may be missing. Equal values may be shown once. Read-outs that look alike come from different tables or passages of the source.

The target in one data set is T1, β1-ARs (Rattus norvegicus, UniProt P18090).
T1 construct: rat C6 glioma cells (expressing mostly β1-ARS); endogenous in cells; host or cells: rat C6 glioma cells
The experiment in a line: Isoproterenol-induced cAMP accumulation in rat C6 glioma cells (mostly β1-ARs). The conditions noted are these: read-out: KB (Schild), β1-ARs. Format: cell-based. The method, then: (§1) The effect of ranolazine and its S- and R-enantiomers on cAMP accumulations in rat C6 glioma cells (expressing mostly β1-ARS) and DDT1 MF-2 hamster smooth muscles cells (expressing mostly β2-ARs) were determined. […] However, in the presence of the compounds, the concentration-response curve for the isoproterenol-induced increase in cAMP was shifted to the right with no apparent reduction in the maximal responses, indication that these compounds are competitive antagonists of β1- and β2-ARs. Using the Schild equations for multiple concentrations of the antagonist (ranolazine) or for a single concentration of the enantiomers, the KB values for ranolazine and its S- and R-enantiomers were 9.7, 8.0, and >50 μM (for β1-ARS) and 12.2, 9.0, and >50 μM (for β2-ARs). In summary, ranolazine and its S-enantiomer are competitive antagonists of β1 and β2-ARS with the S-enantiomer having the highest binding affinities of all.

The subject of a further data set is normal SD rats. The data set can be described thus: Insulin levels during intravenous glucose tolerance test (IVGTT) in normal SD rats. The conditions noted are these: 15 mg/kg, 30 minutes prior to glucose. Format: in vivo, rat. As for the experimental part: Each rat was subjected to an IVGTT according to the method of […] et al, Metabolism 42, (1):1-6, 1993. The rats were fasted overnight before administration of the test. One group of eleven rats was given only saline prior to glucose load while the second group of seven rats was given ranolazine prior to glucose load. Glucose was administered at time zero while ranolazine was administered 30 minutes prior to glucose at a dose of 15 mg/kg of body weight. Then, the insulin concentrations in the blood were measured at -30, 0, 2, 4, 7, 15 and 30 minutes. […] The procedure used was that described in Example 2 above.

A further data set addresses T2, β2-ARs (Mesocricetus auratus, UniProt P04274).
T2 construct: DDT1 MF-2 hamster smooth muscles cells (expressing mostly β2-ARs); endogenous in cells; host or cells: DDT1 MF-2 hamster smooth muscle cells
The data set can be described thus: Isoproterenol-induced cAMP accumulation in DDT1 MF-2 hamster smooth muscle cells (mostly β2-ARs). The conditions noted are these: read-out: KB (Schild), β2-ARs. Format: cell-based. As for the experimental part:
as §1
Background: Changes in cAMP serve as a functional read-out for many G protein-coupled receptors.

The target in the next data set is T3, β2-adrenergic receptors (Cavia porcellus, UniProt Q8K4Z4).
T3 construct: membranes prepared from rat ventricle and guinea-pig lung, respectively; from tissue; host or cells: guinea-pig lung membranes
The data set can be described thus: Radioligand binding to β2-ARs, membranes from guinea-pig lung. The method, then: (§2) The objective of this example is to present the affinities and potencies of ranolazine and its S- and R-enantiomers for β1 and β2-adrenergic receptors (ARs) in various tissues and cell lines. Using radioligand binding techniques, competition of the compounds for specific radioligand binding to β1- and β2-ARs was determined using membranes prepared from rat ventricle and guinea-pig lung, respectively.

Data set [1] relates to Female rabbit isolated hearts. The data set can be described thus: LV monophasic action potential duration (MAPD90) in female rabbit isolated hearts. As to conditions: for pEC50: Oryctolagus cuniculus. The method, then:
The objective of this example is to present the effects of ranolazine and the R- and S-enantiomers of ranolazine on left ventricular monophasic action potential duration (LV MAPD), regional LV dispersion of MAPD (apex-base) and arrhythmogenesis. Female rabbit isolated hearts were perfused with modified K-H solution and paced at a constant rate of 1 Hz after surgical-induced complete atrioventricular block. LV MAPs from the base and apex were measured using contact MAP electrodes.
Each animal was sedated using 6 mg/kg xylazine i.m. and 40 mg/kg ketamine i.m. and then anesthetized by a “cocktail” (ketamine 15 mg/kg+xylazine 4 mg/kg in 1.5 mL saline) i.v. via the marginal ear vein. The thorax was quickly opened. The heart was excised and placed in a modified Krebs-Henseleit (K-H) solution at room temperature. The K-H solution contained (in mmol/L): NaCl 118, KCl 2.8, KH2PO4 1.2, CaCl2 2.5, MgSO4 0.5, pyruvate 2.0, glucose 5.5, Na2EDTA 0.57 and NaHCO3 25. The solution was continuously gassed with 95% O2 and 5% CO2, and its pH was adjusted to 7.4. The aorta was rapidly catheterized and the heart was perfused by the method of Langendorff with K-H solution warmed to 36-36.5° C. at a rate of 20 mL/min with a roller pump (Gilson Minipuls3, Middleton, Wis.). Perfusion pressure was measured (with a Biopac MP 150 pressure transducer, Goleta, Calif.) from a side port of the aortic catheter. To facilitate exit of fluid from the chamber of the left ventricle (LV), the leaflets of the mitral valve were trimmed with fine spring-handled scissors. The right atrial wall was partially removed for AV node ablation to block AV conduction.
Complete AV block was induced by surgical ablation (heated) of AV nodal area. […] A bipolar Teflon-coated electrode was placed on the right ventricular septum to pace the heart. Electrical stimuli 3 msec in width and 3-fold threshold amplitude were delivered to the pacing electrode at a frequency of 1 Hz using a Grass S48 stimulator (W. Warwick, R.I.).
After initiation of ventricular pacing, a 30-40 min delay was allowed for heart rhythm and perfusion pressure to achieve a steady state, an essential experimental condition for recording a good quality monophasic action potential (MAP).
Monophasic action potentials (MAP) and ECG electrodes from Harvard Apparatus Inc. (Holliston, Mass.) were used to record left ventricular MAPs and bipolar ECG. Two MAP electrodes were placed on the epicardial ventricular free wall below the level of atrial-ventricular valves to record basal MAP and apex to record apical MAP signals, respectively. MAP electrodes were pressure-contact Ag—AgCl electrodes attached to a circular holder with springs to maintain the electrodes' contact with the LV epicardial surface. […] Signals were saved on a computer hard disk for subsequent analysis. Bipolar electrocardiogram (ECG) was generated using an isolated-heart ECG apparatus (Harvard Apparatus, Holliston, Mass.) attached to Biopac amplifier system. Coronary perfusion pressure was measured using a pressure transducer (Biopac or PowerLab pressure measuring system). […] All signals were saved on a computer hard disk for subsequent analysis.
Original MAP profiles of 3-5 consecutive beats were superimposed to get one average signal using computer software (Biopac, Goleta, Calif.) and then transferred into Microsoft Excel software and plotted to measure the duration of the MAP at the level at which repolarization is 90% completed (MAPD90).

The target of another data set is T4, β1-adrenergic receptors (Rattus norvegicus, UniProt P18090).
T4 construct: membranes prepared from rat ventricle and guinea-pig lung, respectively; from tissue; host or cells: rat ventricle membranes
The data set can be described thus: Radioligand binding to β1-ARs, membranes from rat ventricle. The method, then:
as §2

In another data set the target is CYP2D6 (Homo sapiens, UniProt P10635). The data set can be described thus: biochemical.
[2] abbreviates: paced at 1 Hz, site not stated, read-out: EC50 to prolong LV MAPD90.

T3 sequence (Q8K4Z4 whole entry): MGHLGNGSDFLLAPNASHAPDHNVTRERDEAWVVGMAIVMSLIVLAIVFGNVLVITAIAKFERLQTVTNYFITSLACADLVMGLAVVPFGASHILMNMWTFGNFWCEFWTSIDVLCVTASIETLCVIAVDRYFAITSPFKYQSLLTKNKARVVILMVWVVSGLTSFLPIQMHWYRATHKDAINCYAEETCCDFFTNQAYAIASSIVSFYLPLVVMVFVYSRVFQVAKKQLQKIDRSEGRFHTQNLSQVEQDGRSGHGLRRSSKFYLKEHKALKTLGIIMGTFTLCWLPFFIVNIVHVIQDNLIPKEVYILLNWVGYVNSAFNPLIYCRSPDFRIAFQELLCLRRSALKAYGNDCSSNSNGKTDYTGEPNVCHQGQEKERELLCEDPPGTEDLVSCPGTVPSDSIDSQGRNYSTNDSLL
T1 sequence (P18090 whole entry): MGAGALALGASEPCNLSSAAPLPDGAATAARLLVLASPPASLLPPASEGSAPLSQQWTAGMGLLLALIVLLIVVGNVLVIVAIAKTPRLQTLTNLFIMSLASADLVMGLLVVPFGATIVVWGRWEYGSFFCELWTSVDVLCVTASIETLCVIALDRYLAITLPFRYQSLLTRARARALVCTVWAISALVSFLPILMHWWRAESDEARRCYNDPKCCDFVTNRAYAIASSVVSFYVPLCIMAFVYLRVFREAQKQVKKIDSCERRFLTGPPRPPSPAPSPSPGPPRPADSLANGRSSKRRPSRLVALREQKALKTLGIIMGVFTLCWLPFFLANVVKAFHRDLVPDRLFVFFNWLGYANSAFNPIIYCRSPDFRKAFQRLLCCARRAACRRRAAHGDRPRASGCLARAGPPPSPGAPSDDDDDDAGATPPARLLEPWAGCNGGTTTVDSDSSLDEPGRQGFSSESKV
T4 sequence (P18090 whole entry): as above
T2 sequence (P04274 whole entry): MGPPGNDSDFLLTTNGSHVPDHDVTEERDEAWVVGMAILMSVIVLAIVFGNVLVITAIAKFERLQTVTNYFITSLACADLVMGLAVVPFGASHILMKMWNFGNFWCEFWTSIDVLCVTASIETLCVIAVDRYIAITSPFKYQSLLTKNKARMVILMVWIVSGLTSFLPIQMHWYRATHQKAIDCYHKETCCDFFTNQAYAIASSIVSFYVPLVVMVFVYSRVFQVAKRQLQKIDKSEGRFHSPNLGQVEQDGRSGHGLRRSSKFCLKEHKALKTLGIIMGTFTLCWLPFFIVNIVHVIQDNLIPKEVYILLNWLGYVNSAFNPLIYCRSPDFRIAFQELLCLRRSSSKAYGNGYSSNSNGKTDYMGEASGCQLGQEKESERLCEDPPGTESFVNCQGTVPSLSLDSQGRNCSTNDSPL
Sequence of CYP2D6 (P10635 whole entry): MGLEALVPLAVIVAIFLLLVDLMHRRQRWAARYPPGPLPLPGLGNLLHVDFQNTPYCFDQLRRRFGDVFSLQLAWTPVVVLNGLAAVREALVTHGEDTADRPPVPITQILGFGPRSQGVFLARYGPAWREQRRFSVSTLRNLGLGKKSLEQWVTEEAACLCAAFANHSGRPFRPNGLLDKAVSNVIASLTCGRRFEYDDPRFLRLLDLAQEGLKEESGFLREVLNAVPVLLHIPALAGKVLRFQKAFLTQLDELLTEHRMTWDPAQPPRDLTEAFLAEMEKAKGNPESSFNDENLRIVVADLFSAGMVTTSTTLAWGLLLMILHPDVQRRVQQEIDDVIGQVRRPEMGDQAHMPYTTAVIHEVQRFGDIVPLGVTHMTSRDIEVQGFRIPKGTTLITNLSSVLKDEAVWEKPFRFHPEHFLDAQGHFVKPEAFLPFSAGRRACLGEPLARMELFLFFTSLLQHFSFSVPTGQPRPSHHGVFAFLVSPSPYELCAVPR
Protocol for CYP2D6: The incubation mixture contained potassium phosphate, pH 7.2 (final concentration=100 mM), magnesium chloride (5 mM), NADPH (1 mM), CYP2D6-specific marker substrate (bufuralol, 25 μM), (R) or (S)-ranolazine (10, 25, 100, 250, 1000 μM), or known CYP2D6 inhibitor (quinidine, 5 μM), and human liver microsomal (HLM) proteins. All reagents except NADPH were combined and preincubated at 37° C. for 2-3 min. Reactions were initiated by addition of NADPH and incubated 20 minutes. The CYP2D6 marker reaction, bufuralol 1-hydroxylation, was monitored. A known CYP2D6 inhibitor, quinidine, was included as a positive control. The negative control samples consisted of all components but not ranolazine. Incubations were run in triplicate for each condition except for positive controls, which were carried out in duplicate.

What is called pKi is −log10 of the Ki, conventionally taken in molar units. A high value points to a low Ki. By pEC50 is commonly meant the negative decadic logarithm of the EC50, by convention in mol/L. `COc1ccccc1OCC(O)CN1CCN(CC(=O)Nc2c(C)cccc2C)CC1` (racemic) [ranolazine, (±)-N-(2,6-dimethylphenyl)-4-[2-hydroxy-3-(2-methoxyphenoxy)propyl]-1-piperazine-acetamide]: the values for the Kb at β1-ARs and on β2-ARs were 9.7 µM and 12.2 µM, respectively. Also, the “insulin levels relative to baseline during IVGTT, compared to vehicle treated rats” value in the data set with normal SD rats was “higher”. Also, the figures for the pKi on β2-adrenergic receptors and on β1-adrenergic receptors were 4.83 and 5.07, respectively. Also, the “regional MAPD dispersion and PVBs or VT” value in data set [1] (1-100 μM) was “without increasing regional MAPD dispersion or eliciting premature ventricular beats (PVBs) or ventricular tachycardia (VT)”. For the same molecule, the pEC50 is 5.32 in data set [1] (paced at 1 Hz, read-out: EC50 to prolong LV MAPD90 (Apex)) and 5.37 in data set [1] (paced at 1 Hz, read-out: EC50 to prolong LV MAPD90 (Base)). The “induction of EADs, PVBs or VT” value in data set [1] (at any concentration) is “did not induce any EADs, PVBs or VT”. The “maximal increase of apical MAPD90 above control” value in data set [1] (paced at 1 Hz, 30-100 μmol/L) is 35±4% and 35.2±4.1%. Moreover, the “maximal increase of basal MAPD90 above control” value in data set [1] (paced at 1 Hz, 30-100 μmol/L) was 32±4% and 32.2±4.2%.

One may read the pIC50 as −log10 of the IC50, conventionally taken in molar units. With `COc1ccccc1OC[C@H](O)CN1CCN(CC(=O)Nc2c(C)cccc2C)CC1` [R-ranolazine, (R)-(+)-N-(2,6-dimethylphenyl)-4-[2-hydroxy-3-(2-methoxyphenoxy)-propyl]-1-piperazineacetamide], the Kb on β1-ARs and on β2-ARs was above 50 µM in each case. In addition, at CYP2D6, the pIC50 was 3.37. In the data set with normal SD rats, the “insulin levels relative to baseline during IVGTT, compared to vehicle treated rats” value is “higher”. Besides, the pKi on β2-adrenergic receptors is 4.41; on β1-adrenergic receptors it was below 4.00. In addition, the pEC50 in data set [1] (setting [2]) was 5.19. Besides, the “maximal increase of MAPD90” value in data set [1] (paced at 1 Hz, site not stated) is reported as 22±5%.

For `COc1ccccc1OC[C@@H](O)CN1CCN(CC(=O)Nc2c(C)cccc2C)CC1` [S-ranolazine, (S)-(−)-N-(2,6-dimethylphenyl)-4-[2-hydroxy-3-(2-methoxyphenoxy)-propyl]-1-piperazineacetamide], the Kb stood at 8 µM at β1-ARs and 9 µM at β2-ARs. In addition, on CYP2D6, the pIC50 was 3.89. Further, in the data set with normal SD rats, the “insulin levels relative to baseline during IVGTT, compared to vehicle treated rats” value is recorded as “not different from the vehicle treated rats”. Besides, the results for the pKi on β2-adrenergic receptors and at β1-adrenergic receptors were 5.17 and 5.32, respectively. For the same molecule, the negative-log EC50 (pEC50) in data set [1] (setting [2]) is 5.23. Also, the “maximal increase of MAPD90” value in data set [1] (paced at 1 Hz, site not stated) is given as 28±4%.
